Experimental data reported in patent US8067441B2, “Use of collismycin and derivatives thereof as oxidative stress inhibitors” (Neuropharma, S.A., priority 2005, dated 2011).

What was measured:
Format in all cases: cell-based
[1] = system: SH-SY5Y human neuroblastoma cells; experiment: Protection against 6-OHDA-induced cell death, condition A (2 h preincubation, 10% serum); settings: 6-OHDA 75 μM, 16 h, medium with 10% foetal bovine serum
Description: (§1) The aim of this experiment is to determine the protective effect of the compounds of formula (I) against the toxicity caused by 6-hydroxydopamine (6-OHDA). This toxin induces a cell death similar to which occurs in Parkinson's disease, destroying dopaminergic neurons (“MPTP and 6-hydroxydopamine-induced neurodegeneration as models for Parkinson's disease: neuroprotective strategies”; Grunblatt E, et al.; J Neurol. 2000 April; 247 Suppl 2:1195-102).
(§2) Cells are exposed to the treatment with 6-OHDA and, finally, cell death is measured by LDH quantification. As positive control we used NAC. The assay is performed in two different experimental conditions:
A) NAC and the compound of formula (I) are preincubated during 2 hours before the treatment with 6-OHDA 75 μM during 16 hours. The assay is performed in medium containing 10% Foetal bovine serum.

[2] = system: SH-SY5Y human neuroblastoma cells; experiment: Protection against 6-OHDA-induced cell death, condition B (1 h preincubation, no serum); settings: 6-OHDA 50 μM, 24 h, medium without fetal bovine serum
Description: as §1, §2
B) NAC and the compound of formula (I) are preincubated during 1 hour before the treatment with 6-OHDA 50 μM during 24 hours. The assay is performed in medium without any fetal bovine serum.

[3] = system: SH-SY5Y human neuroblastoma cells; experiment: Protection against hydrogen peroxide-induced cell death (LDH); settings: 1 h preincubation, H2O2 100 μM, 24 h
Method: The aim of this assay is to determine the neuroprotective effect of the compounds of formula (I), when human neuroblastoma cells are exposed to oxidative stress induced by hydrogen peroxide, which is highly deleterious to the cell and its accumulation causes oxidation of cellular targets such as DNA, proteins, and lipids leading to mutagenesis and cell death.
SH-SY5Y human neuroblastoma cells are seeded into 96-well culture plate at a density of 10^4 cells/well. Cells are exposed to the different concentrations of the compound one hour before the treatment with H2O2 100 μM during 24 h. 5 mM NAC, a known anti-oxidant agent was used as a positive control, and preincubated 1 hour before the treatment with H2O2. After 24 h, the medium is removed and cells attached to the bottom of the well are lysed by adding 50 μl of Triton X-100 1% in Krebs-Hepes during 5 minutes at room temperature.
Cell survival was determined in parallel in the same assay.

Row | Compound | minimum concentration at which neuroprotective [1] | minimum concentration showing neuroprotective effect [2] | lowest concentration at which neuroprotective effects were detected [3] | neuroprotective activity against 6-OHDA (concentration not given) [1]
1 | COc1cc(/C=N/O)nc(-c2ccccn2)c1 [Caerulomycin A] | 1 µM | 1 µM | 0.05 µM | 
2 | COc1cc(-c2ccccn2)nc(CO)c1SC [Collismycin C] |  | 10 µM | 10 µM | neuroprotective activity
3 | CSc1cc(C#N)nc(-c2ccccn2)c1 [Compound 1, 4-Methylsulfanyl-[2,2′]bipyridinyl-6-carbonitrile] |  |  | 5 µM | 
4 | O/N=C/c1nc(-c2ccccn2)ccc1F [Compound 2, 5-Fluoro-[2,2′]bipyridinyl-6-carbaldehyde oxime] |  | 0.5 µM | 0.5 µM | neuroprotective activity
5 | O/N=C/c1nc(-c2cnccn2)ccc1F [Compound 3, 3-Fluoro-6-pyrazin-2-yl-pyridine-2-carbaldehyde oxime] |  |  | 10 µM | neuroprotective activity
